This assay relates to Hyperlipidemic Hamster. The assay can be described thus: In Vivo Assay of Hypolipidemic Agents Using the Hyperlipidemic Hamster. To be noted: Mesocricetus auratus, po, 168 h; for change in vivo at 5 mg/kg: 5 mg/kg once daily oral; for change in vivo at 10 mg/kg: 10 mg/kg once daily oral; for change in vivo at 30 mg/kg: 30 mg/kg once daily oral. The protocol: In Vivo Assay of Hypolipidemic Agents Using the Hyperlipidemic Hamster
Hamsters are separated into groups of six and given a controlled cholesterol diet (Purina Chow #5001 containing 0.5% cholesterol) for seven days. Diet consumption is monitored to determine dietary cholesterol exposure in the face of test compounds. The animals are dosed with the test compound once daily beginning with the initiation of diet. Dosing is by oral gavage of 0.2mL of corn oil alone (control group) or solution (or suspension) of test compound in corn oil. All animals roodbund or in poor physical condition are euthanized. After seven days, the animals are anesthetized by IM injection of ketamine and sacrificed by decapitation. Blood is collected into vacutainer tubes containing EDTA for plasma lipid analysis and the liver excised for tissue lipid analysis. Data is reported as percent reduction of lipid versus control.
Using the test procedures described above, the following in vitro and in vivo data were obtained for the preferred compounds, which are referred to in the following table by the corresponding example numbers. For the in vitro ACAT data, negative percent inhibition denotes apparent stimulation,while positive numbers denote inhibition. For the in vivo results, data is reported as percent change versus control, therefore, negative numbers indicate a positive lipid-lowering effect.

Where [1] appears, read: 50 mg/kg once daily oral, 7 days, percent change versus control, negative = lowering, read-out: % Reduction (in vivo) Cholest. Esters.
The mark [2] stands for this setting: 50 mg/kg once daily oral, 7 days, percent change versus control, negative = lowering, read-out: % Reduction (in vivo) Serum Cholest.
[3] abbreviates: 7 days, percent change versus control, negative = lowering, read-out: % Reduction (in vivo) Cholest. Esters.
The mark [4] stands for this setting: 7 days, percent change versus control, negative = lowering, read-out: % Reduction (in vivo) Serum Cholest.
[5] abbreviates: read-out: % Reduction (in vivo) Cholest. Esters.
The mark [6] stands for this setting: read-out: % Reduction (in vivo) Serum Cholest.

Read-outs that look alike come from different tables or passages of the source.

Turning to `COc1ccc(N2C(=O)[C@H](CCCc3ccccc3)[C@@H]2c2ccc(C(=O)N3CCOCC3)cc2)cc1` (relative stereo) [Example 23], the change in vivo at 50 mg/kg was -40% under setting [1] and -22% under setting [2].
Turning to `CCN(CC)c1ccc(N2C(=O)[C@H](CCCc3ccccc3)[C@H]2c2ccc(OC)cc2)cc1` (relative stereo) [Example 7C], the change in vivo at 50 mg/kg is -95% under setting [1] and -51% under setting [2].
Consider `COc1ccc(N2C(=O)[C@@H](CCCc3ccccc3)[C@H]2c2ncc[nH]2)cc1` (relative stereo) [Example 18], for which the change in vivo at 50 mg/kg reads like this: under setting [1], 0%; under setting [2], 0%.
Take `COc1ccc(C2C(CCCc3ccccc3)C(=O)N2c2ccc(OC)cc2)cc1` (centres unmarked) [Example 1]: the change in vivo at 5 mg/kg runs as follows: under setting [3], 0%; under setting [4], 0%. Moreover, the change in vivo at 10 mg/kg runs as follows: under setting [3], -55%; under setting [4], -17%. Besides, the change in vivo at 50 mg/kg is -95% under setting [1] and -45% under setting [2].
As to `COC(=O)c1ccc([C@@H]2[C@@H](CCCc3ccccc3)C(=O)N2c2ccccc2)cc1` (relative stereo) [Example 7R], the change in vivo at 50 mg/kg by setting is: under setting [1], -80%; under setting [2], -35%.
Consider `COc1ccc(N2C(=O)[C@H](CCCc3ccccc3)[C@H]2c2ccc(N(C)C)cc2)cc1` (relative stereo) [Example 7U], for which the change in vivo at 50 mg/kg reads like this: under setting [1], -60%; under setting [2], -29%.
Turning to `COc1ccc(N2C(=O)[C@H](CCCc3ccccc3)[C@H]2c2cc[n+]([O-])cc2)cc1` (relative stereo) [Example 20], the change in vivo at 50 mg/kg under setting [1] stood at 0% and the change in vivo at 50 mg/kg under setting [2] came out at 12%.
For the compound `COc1ccc(N2C(=O)[C@H](CCCc3ccccc3)[C@H]2c2nccn2COCC[Si](C)(C)C)cc1` (relative stereo) [Example 1AV], the change in vivo at 50 mg/kg reads like this: under setting [5], 0%; under setting [6], 15%.
Turning to `COc1ccc([C@@H]2[C@@H](CCCc3ccccc3)C(=O)N2c2cc(F)cc(F)c2)cc1` (relative stereo) [Example 7E], the change in vivo at 50 mg/kg is, setting by setting: under setting [1], -93%; under setting [2], -52%.
`COc1ccc([C@@H]2[C@@H](CCCc3ccccc3)C(=O)N2c2ccc(F)cc2)cc1` (relative stereo) [Example 5D]: the change in vivo at 10 mg/kg under setting [3] was -77% and the change in vivo at 10 mg/kg under setting [4] is -24%. The change in vivo at 30 mg/kg under setting [3] was -94% and the change in vivo at 30 mg/kg under setting [4] was -41%. The change in vivo at 50 mg/kg was -95% under setting [1] and -38% under setting [2].
On to `COc1ccc([C@@H]2[C@@H](CCCc3ccccc3)C(=O)N2c2ccc(C)cc2)cc1` (relative stereo) [Example 5J], for which the change in vivo at 50 mg/kg under setting [1] is -90% and the change in vivo at 50 mg/kg under setting [2] was -38%.
With `CCOC(=O)c1ccc(N2C(=O)[C@H](CCCc3ccccc3)[C@H]2c2ccc(OC)cc2)cc1` (relative stereo) [Example 7A], the change in vivo at 50 mg/kg is -54% under setting [1] and -22% under setting [2].
Regarding `COc1ccc(N2C(=O)[C@H](CCCc3ccccc3)[C@@H]2c2nccn2COCC[Si](C)(C)C)cc1` (relative stereo) [Example 1AW], the change in vivo at 50 mg/kg runs as follows: under setting [5], -16%; under setting [6], -14%.
As for `COc1ccc(N2C(=O)[C@H](CCCc3ccccc3)[C@@H]2c2ccc(Oc3ccccc3)cc2)cc1` (relative stereo) [Example 1BS], the change in vivo at 50 mg/kg runs as follows: under setting [1], -43%; under setting [2], 0%.
On to `COc1ccc([C@H]2[C@@H](CCCc3ccccc3)C(=O)N2c2ccc(Oc3ccccc3)cc2)cc1` (relative stereo) [Example 1AQ], for which the change in vivo at 50 mg/kg was -22% under setting [1] and -20% under setting [2].
For the compound `COc1ccc(N2C(=O)[C@H](CCCc3ccccc3)[C@H]2c2ccc(OC)c(C)c2)cc1` (relative stereo) [Example 7Q], the change in vivo at 50 mg/kg is 0% under setting [1] and -16% under setting [2].
The corresponding values for `COc1ccc(N2C(=O)[C@@H](CCCc3ccccc3)[C@@H]2c2cc3ccccc3o2)cc1` (relative stereo) [Example 1CA] are 0% and -12%.
In the case of `COc1ccc([C@@H]2[C@@H](CCCC3CCCCC3)C(=O)N2c2ccc(OC)cc2)cc1` (relative stereo) [Example 7AK], the change in vivo at 50 mg/kg under setting [1] was -28% and the change in vivo at 50 mg/kg under setting [2] was determined as 12%.
For the compound `COc1ccc([C@@H]2[C@@H](CCCc3ccc(N)cc3)C(=O)N2c2ccc(OC)cc2)cc1` (relative stereo) [Example 8E], the change in vivo at 50 mg/kg is -32% under setting [1] and 0% under setting [2].
As for `CCCCOc1ccc([C@H]2[C@@H](CCCc3ccccc3)C(=O)N2c2ccc(OC)cc2)cc1` (relative stereo) [Example 1BR], the change in vivo at 50 mg/kg was -70% under setting [1] and -15% under setting [2].
Regarding `COc1ccc([C@@H]2[C@@H](CCCc3ccccc3)C(=O)N2c2cccc3c2CCCC3)cc1` (relative stereo) [Example 7AS], the change in vivo at 50 mg/kg by setting is: under setting [1], -20%; under setting [2], 0%.
Regarding `COc1ccc([C@@H]2[C@H](N3C(=O)c4ccccc4C3=O)C(=O)N2c2ccccc2)cc1` (relative stereo) [Example 7L], the change in vivo at 50 mg/kg runs as follows: under setting [1], 0%; under setting [2], 0%.
For the compound `COc1ccc([C@@H]2[C@@H](CCCc3ccccc3)C(=O)N2c2ccc(OC)nc2)cc1` (relative stereo) [Example 7F], the change in vivo at 50 mg/kg under setting [1] is -26% and the change in vivo at 50 mg/kg under setting [2] turned out to be 0%.
For `COc1ccc([C@@H]2[C@H](NCCc3ccccc3)C(=O)N2c2ccccc2)cc1` (relative stereo) [Example 14], the change in vivo at 50 mg/kg by setting is: under setting [1], -87%; under setting [2], 30%.
In the same order, the values of `COc1ccc(N2C(=O)[C@H](CCCc3ccccc3)[C@@H]2c2cc(OC)c(OC)c(OC)c2)cc1` (relative stereo) [Example 1BV] are 0% and -11%.
`COc1ccc([C@@H]2[C@H](NS(=O)(=O)c3ccc(C)cc3)C(=O)N2c2ccccc2)cc1` (relative stereo) [Example 13]: the change in vivo at 50 mg/kg was 0% under setting [1] and -18% under setting [2].
The corresponding values for `COc1ccc(C(=O)[C@@H]2[C@@H](CCCc3ccccc3)C(=O)N2c2ccc(OC)cc2)cc1` (relative stereo) [Example 7V] are 0% and 0%.
Turning to `CCOC(=O)c1ccc([C@@H]2[C@@H](CCCc3ccccc3)C(=O)N2c2ccc(OC)cc2)cc1` (relative stereo) [Example 24A], the change in vivo at 50 mg/kg is -76% under setting [1] and -21% under setting [2].
In the same order, the values of `COc1ccc([C@@H]2[C@@H](CCCc3ccccc3)C(=O)N2c2ccc(S(C)(=O)=O)cc2)cc1` (relative stereo) [Example 17B] are -39% and 0%.
The corresponding values for `COc1ccc([C@@H]2[C@@H](CCCc3ccccc3)C(=O)N2c2ccc(Cl)cc2)cc1` (relative stereo) [Example 5G] are -93% and -44%.

Values taken from US5688787A, “Substituted β-lactam compounds useful as hypochlesterolemic agents and processes for the preparation thereof” (priority 1996, dated 1997).
